Experimental data published in ChEMBL document CHEMBL1157269, “Antineoplastic agents. 551. Isolation and structures of bauhiniastatins 1-4 from Bauhinia purpurea” (2006).
Values after ≈ are worked out from the molar mass of the structure shown.

Columns and labels:
Format in all cases: functional
NCI-H460 = experiment: Growth inhibition of human NCI-H460 cells
BXPC-3 = experiment: Growth inhibition of human BXPC3 cells
MCF7 = experiment: Growth inhibition of human MCF7 cells
SF-268 = experiment: Growth inhibition of human SF268 cells
KM-20L2 = experiment: Growth inhibition of human KM20L2 cells
P388 = experiment: Growth inhibition of mouse P388 cells
DU-145 = experiment: Growth inhibition of human DU145 cells

Row | SMILES | GI50 (NCI-H460) [mg/L] | GI50 (BXPC-3) [mg/L] | GI50 (MCF7) [mg/L] | GI50 (SF-268) [mg/L] | GI50 (KM-20L2) [mg/L] | GI50 (P388) [mg/L] | GI50 (DU-145) [mg/L]
1 | COc1c(C)c(=O)c2oc3cccc(O)c3ccc=2c1=O [BAUHINIASTATIN 1] | 6.6 (≈ 23.2 µM) | 7 (≈ 24.6 µM) | 4.1 (≈ 14.4 µM) | 2.4 (≈ 8.44 µM) | > 10 | 0.65 (≈ 2.29 µM) | > 10
2 | COc1c(C)c(O)c2c(c1OC)C=Cc1c(O)cccc1O2 [BAUHINIASTATIN 2] | 3.5 (≈ 11.7 µM) | 3.8 (≈ 12.7 µM) | 3.1 (≈ 10.3 µM) | 3.2 (≈ 10.7 µM) | > 10 | 23.2 (≈ 77.3 µM) | 3.8 (≈ 12.7 µM)
3 | COc1cc2c(c(O)c1C)Oc1c(O)ccc(OC)c1C=C2 [BAUHINIASTATIN 3] | 6.1 (≈ 20.3 µM) | 6.6 (≈ 22 µM) | 3.2 (≈ 10.7 µM) | 5.8 (≈ 19.3 µM) | > 10 | 15.7 (≈ 52.3 µM) | 5.8 (≈ 19.3 µM)
4 | COc1c(C)c(O)cc2c1Oc1cccc(O)c1C=C2 [BAUHINIASTATIN 4] |  |  |  |  |  | 61.5 (≈ 228 µM) | 
5 | O=c1[nH]cc(F)c(=O)[nH]1 [FLUOROURACIL] |  |  |  |  |  | 0.073 (≈ 0.561 µM) | 
6 | COc1cc2c(c(O)c1C)Oc1cccc(O)c1C=C2 [PACHARIN] | 4.2 (≈ 15.5 µM) | 4.3 (≈ 15.9 µM) | 2.3 (≈ 8.51 µM) | 3.1 (≈ 11.5 µM) | > 10 | 15.5 (≈ 57.3 µM) | 3.3 (≈ 12.2 µM)
